Data from ChEMBL document CHEMBL5512666, “Selenization of Small Molecule Drugs: A New Player on the Board” (J Med Chem, 2024).

How the values were obtained:
PANC-1 = test: Cytotoxicity against human PANC-1 cells assessed as reduction in cell viability incubated for 48 hrs by MTT assay; assay type: functional, cell-based; settings: PANC-1, 48 h
MIA PaCa-2 = test: Cytotoxicity against human MIA PaCa-2 cells assessed as reduction in cell viability incubated for 48 hrs by MTT assay; assay type: functional, cell-based; settings: MIA PaCa-2, 48 h
BXPC-3 = test: Cytotoxicity against human BXPC-3 cells assessed as reduction in cell viability incubated for 48 hrs by MTT assay; assay type: functional, cell-based; settings: BXPC-3, 48 h
[1] = Cytotoxicity against MEF cells assessed as reduction in cell viability incubated for 48 hrs by MTT assay; assay type: toxicity, cell-based; settings: mouse
LNCaP = test: Cytotoxicity against human LNCaP cells incubated for 48 hrs; assay type: functional, cell-based
PC-3 = test: Cytotoxicity against human PC-3 cells incubated for 48 hrs; assay type: functional, cell-based; settings: PC-3, 48 h
DU-145 = test: Cytotoxicity against human DU-145 cells incubated for 48 hrs; assay type: functional, cell-based; settings: DU-145, 48 h

## CC(=O)Oc1ccccc1C(=O)/N=C1\[Se]CCN1C(=O)c1ccccc1OC(C)=O
PANC-1
  IC50: 740 nM
MIA PaCa-2
  IC50: 3030 nM
BXPC-3
  IC50: 2090 nM
[1]
  IC50 at 48 h: > 50000 nM
LNCaP
  IC50: 2340 nM
PC-3
  IC50: 1700 nM
DU-145
  IC50: 520 nM
